From publication PMC6629088, “Substituted anthraquinones represent a potential scaffold for DNA methyltransferase 1-specific inhibitors” (PLoS ONE, 2019) come the findings set out here.

SMILES strings stand for the structures.

Holding throughout (assay type): biochemical
Assay [1] has as its target T1, DNA methyltransferase 1 (RFTS(-) DNMT1) (Homo sapiens, UniProt P26358).
T1 construct: RFTS(-) DNMT1 (amino acids 621–1616)
As to the kind of experiment: endonuclease-coupled DNA methylation assay (IC50); supported by DSF (+[…] °C), FP DNA competition and detergent test. (In general: DSF heats the sample and reads unfolding from a dye or from intrinsic fluorescence.)

A further assay concerns the target T2, DNMT3a (Homo sapiens, UniProt Q9Y6K1).
T2 construct: C-terminal catalytic domain of DNMT3a (amino acids 611–912)
As to the kind of experiment: endonuclease-coupled DNA methylation assay, single concentration […] ([…] activity remaining). To be noted: read-out: DNMT3a catalytic domain.

The target in assay [2] is T1, DNA methyltransferase 1 (RFTS(-) DNMT1). As to the kind of experiment: endonuclease-coupled DNA methylation kinetics (Ki); IC50 […]; supported by DSF (+[…] °C), FP DNA competition and detergent test.

In general, IC50 refers to the concentration that gives 50% inhibition. Usually Ki stands for the equilibrium dissociation constant of an inhibitor or competing ligand from its target. Low values mean higher affinity, high ones lower affinity.

T1 sequence (P26358 621-1616): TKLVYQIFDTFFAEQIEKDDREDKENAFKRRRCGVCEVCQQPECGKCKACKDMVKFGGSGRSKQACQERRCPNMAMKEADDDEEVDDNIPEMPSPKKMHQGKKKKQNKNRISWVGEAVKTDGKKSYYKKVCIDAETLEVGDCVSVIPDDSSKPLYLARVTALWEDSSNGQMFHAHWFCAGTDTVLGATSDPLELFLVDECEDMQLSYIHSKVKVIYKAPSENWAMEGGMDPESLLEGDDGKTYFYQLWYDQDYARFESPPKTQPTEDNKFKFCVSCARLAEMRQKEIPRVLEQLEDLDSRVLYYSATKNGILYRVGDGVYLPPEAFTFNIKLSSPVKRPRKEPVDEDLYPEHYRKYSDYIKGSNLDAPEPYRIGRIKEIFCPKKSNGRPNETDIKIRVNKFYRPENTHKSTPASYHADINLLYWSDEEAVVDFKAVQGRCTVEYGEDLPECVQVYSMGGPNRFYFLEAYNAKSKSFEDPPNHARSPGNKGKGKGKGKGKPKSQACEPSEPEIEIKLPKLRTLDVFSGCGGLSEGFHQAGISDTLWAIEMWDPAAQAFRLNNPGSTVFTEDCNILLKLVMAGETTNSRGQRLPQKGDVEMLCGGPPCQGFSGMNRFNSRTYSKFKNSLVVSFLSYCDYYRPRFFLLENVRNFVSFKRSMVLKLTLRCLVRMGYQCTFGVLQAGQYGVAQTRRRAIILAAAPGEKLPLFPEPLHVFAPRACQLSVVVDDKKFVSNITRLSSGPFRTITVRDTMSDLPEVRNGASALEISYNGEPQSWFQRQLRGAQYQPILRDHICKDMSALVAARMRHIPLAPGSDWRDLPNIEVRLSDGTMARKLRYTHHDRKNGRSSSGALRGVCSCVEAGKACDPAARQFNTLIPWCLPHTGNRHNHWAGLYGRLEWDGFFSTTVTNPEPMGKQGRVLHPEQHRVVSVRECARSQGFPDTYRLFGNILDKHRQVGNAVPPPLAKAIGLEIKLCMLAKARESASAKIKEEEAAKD
T2 sequence (Q9Y6K1 611-912): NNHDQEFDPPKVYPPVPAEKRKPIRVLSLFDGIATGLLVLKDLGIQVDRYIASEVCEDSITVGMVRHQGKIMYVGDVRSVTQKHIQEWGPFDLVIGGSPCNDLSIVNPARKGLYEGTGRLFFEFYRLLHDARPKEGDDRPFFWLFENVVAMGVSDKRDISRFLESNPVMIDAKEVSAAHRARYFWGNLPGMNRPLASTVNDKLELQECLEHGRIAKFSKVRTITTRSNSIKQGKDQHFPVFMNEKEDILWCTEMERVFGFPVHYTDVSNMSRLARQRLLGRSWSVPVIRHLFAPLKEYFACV

Regarding `Cc1ccc(NC(=O)c2ccc3c(c2O)C(=O)c2ccccc2C3=O)cc1` [A11], in assay [1], the IC50 amounted to 59 ± 10 µM. As to `CC(=O)NCCc1ccc(O)c(-c2c(O)c(O)c3c(c2O)C(=O)c2c(cc(O)c(C(=O)O)c2C(=O)O)C3=O)c1` [LCA, laccaic acid A], on DNMT3a, the activity at 100 µM worked out at 32 ± 1%. The compound `COc1cc(C(=O)Nc2ccc3c(c2)C(=O)c2ccccc2C3=O)cc(OC)c1OC` [A13] registered a Ki in assay [2] of 13 ± 3 µM.
